Measured values as given in patent publication US20050074879A1, “Antisense oligonucleotide modulation of STAT3 expression” (priority 2000, published 2005).
Oligonucleotides are written 5' to 3', each unit as a sugar letter and its base; * is a phosphorothioate linkage, no mark a phosphodiester; rarer units and linkages stand in square brackets, end groups in braces. Plain capitals give the bases only. e = 2'-O-(2-methoxyethyl) (MOE); [5mC] = 5-methylcytosine; d = 2'-deoxy (DNA)

Key:
Type in all cases: cell-based
[1] = system: Human STAT3 mRNA; test: Human STAT3 mRNA dose response in T-24 cells, real-time PCR with PPS 199 (Table 18); details: 16 hours, − decrease, + increase relative to untreated control
Source text: The transitional cell bladder carcinoma cell line T-24 was obtained from the American Type Culture Collection (ATCC) (Manassas, Va.). T-24 cells were routinely cultured in complete McCoy's 5A basal media (Gibco/Life Technologies, Gaithersburg, Md.) supplemented with 10% fetal calf serum (Gibco/Life Technologies, Gaithersburg, Md.), penicillin 100 units per mL, and streptomycin 100 micrograms per mL (Gibco/Life Technologies, Gaithersburg, Md.). Cells were routinely passaged by trypsinization and dilution when they reached 90% confluence. Cells were seeded into 96-well plates (Falcon-Primaria #3872) at a density of 7000 cells/well for use in RT-PCR analysis.
Control oligonucleotides used were ISIS 129695 ([…], SEQ ID NO: 391), ISIS 129694 ([…] SEQ ID NO: 392), ISIS 129690 ([…] SEQ ID NO: 393), ISIS 129686 ([…] SEQ ID NO: 394), ISIS 116847 ([…], SEQ ID NO: 395) and ISIS 113529 ([…] SEQ ID NO: 396). These are universal scrambled control oligonucleotides.
(§1) T-24 cells were treated with 18.75, 37.5, 75, or 150 nM of oligonucleotide mixed with 3 ug/mL LIPOFECTIN per 100 nM oligonucleotide as described by other examples herein. Untreated cells served as controls. Following 16 hours of treatment, RNA was prepared from cells for subsequent real-time PCR analysis.
Human STAT3 mRNA expression levels were quantitated by real-time PCR using primer probe set PPS 199 and gene target quantities were normalized using Ribogreen as described in other examples herein. A “−” or “+” designation indicates a decrease or increase of STAT 3 mRNA expression, respectively, relative to untreated control cells.

[2] = system: Human STAT3 mRNA; test: Human STAT3 mRNA dose response in T-24 cells, real-time PCR with PPS 2033 (Table 19); details: 16 hours, − decrease, + increase relative to untreated control
Description: The dose-response was repeated in T-24 cells and gene target quantities were measured using a different primer-probe set, called PPS 2033 herein. PPS 2033 comprises probes and primers to human STAT3 were designed to hybridize to a human STAT3 sequence, using published sequence information (incorporated herein as SEQ ID NO: XXX). For PPS 2033 the PCR primers were: forward primer: GAGGCCCGCCCAACA (SEQ ID NO: 397) reverse primer: […] (SEQ ID NO: 398) and the PCR probe was: FAM-CTGCCTAGATCGGC-TAMRA (SEQ ID NO: 399) where FAM is the fluorescent reporter dye and TAMRA is the quencher dye. Gene target quantities obtained by real time RT-PCR are normalized by quantifying total RNA using RiboGreen™ (Molecular Probes, Inc. Eugene, Oreg.). Control oligonucleotides used were ISIS 129695 (SEQ ID NO: 391), ISIS 129694 (SEQ ID NO: 392), ISIS 129690 (SEQ ID NO: 393), ISIS 129686 (SEQ ID NO: 394), ISIS 116847 (SEQ ID NO: 395) and ISIS 113529 (SEQ ID NO: 396).
as §1
Human STAT3 mRNA expression levels were quantitated by real-time PCR using primer probe set PPS 2033 and gene target quantities were normalized using Ribogreen as described in other examples herein. A “−” or “+” designation indicates a decrease or increase of STAT 3 mRNA expression, respectively, relative to untreated control cells.

[3] = system: Human STAT3 mRNA; test: Inhibition of human STAT3 mRNA levels in A549 cells, 75 nM, real-time PCR (Table 13); details: 75 nM oligonucleotide with LIPOFECTIN, real-time PCR PPS 199, percent inhibition relative to untreated control cells, average of 2 experiments
In short: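 A549 cells at 65–75% confluency were transfected in duplicate with 75 nM oligonucleotide plus […] Lipofectin for 4–7 h at 37° C and harvested 16–24 h later. STAT3 mRNA was quantified by real-time RT-PCR with primer-probe set PPS 199 and normalized to RiboGreen total RNA. Inhibition is relative to untreated controls.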

Row | Substance | % Inhib (inhibition of human STAT 3 mRNA levels) [3] | also measured
1 | 129694 (antisense GTACAGTTATGCGCGGTAGA; all phosphorothioate, sugars by position and methylation of C not given here; 2'-MOE wings with deoxy gap) [compound 129694] | – | Percent change of STAT3 expression using PPS 199 ([1]; 18.75 nM oligonucleotide): +4%; Percent change of STAT3 expression using PPS 199 ([1]; 37.5 nM oligonucleotide): −3%; Percent change of STAT3 expression using PPS 199 ([1]; 75 nM oligonucleotide): −4%; Percent change of STAT3 expression using PPS 199 ([1]; 150 nM oligonucleotide): −10%; Percent change of STAT3 expression using PPS 2033 ([2]; 18.75 nM oligonucleotide): +19%; Percent change of STAT3 expression using PPS 2033 ([2]; 37.5 nM oligonucleotide): −1%; Percent change of STAT3 expression using PPS 2033 ([2]; 75 nM oligonucleotide): +7%; Percent change of STAT3 expression using PPS 2033 ([2]; 150 nM oligonucleotide): +2%
2 | 337307 (antisense eT*e[5mC]*eA*eA*eT*dG*d[5mC]*dA*d[5mC]*dA*d[5mC]*dT*dT*dT*dA*eA*eT*eT*eT*eT) [compound 337307] | 53% | –
3 | 337259 (antisense e[5mC]*e[5mC]*eA*eT*e[5mC]*d[5mC]*dT*dG*d[5mC]*dT*dA*dA*dA*dA*dT*e[5mC]*eA*eG*eG*eG) [compound 337259] | 58% | –
4 | 337335 (antisense eT*e[5mC]*e[5mC]*eA*eG*d[5mC]*d[5mC]*dA*dG*dA*d[5mC]*d[5mC]*d[5mC]*dA*dG*eA*eA*eG*eG*eA) [compound 337335] | 86% | –
5 | 337349 (antisense eT*eA*e[5mC]*eT*eT*dT*d[5mC]*d[5mC]*dG*dA*dA*dT*dG*d[5mC]*d[5mC]*eT*e[5mC]*e[5mC]*eT*e[5mC]) [compound 337349] | 65% | –
6 | 337299 (antisense eT*e[5mC]*eT*eG*eA*dA*dG*dT*dT*dG*dA*dG*dA*dT*dT*e[5mC]*eT*eG*e[5mC]*eT) [compound 337299] | 80% | –
7 | 337302 (antisense eT*eT*eG*eA*e[5mC]*d[5mC]*dA*dG*d[5mC]*dA*dA*d[5mC]*d[5mC]*dT*dG*eA*e[5mC]*eT*eT*eT) [compound 337302] | 61% | –
8 | 337361 (antisense e[5mC]*eA*eA*eA*e[5mC]*dT*dG*d[5mC]*dA*dT*d[5mC]*dA*dA*dT*dG*eA*eA*eT*e[5mC]*eT) [compound 337361] | 61% | –
9 | 337273 (antisense e[5mC]*e[5mC]*eA*eG*e[5mC]*dA*dT*d[5mC]*dT*dG*d[5mC]*dT*dG*d[5mC]*dT*eT*e[5mC]*eT*e[5mC]*e[5mC]) [compound 337273] | 73% | –
10 | 337305 (antisense e[5mC]*eT*eT*eT*eA*dA*dT*dT*dT*dT*dA*dA*dG*d[5mC]*dT*eG*eA*eT*eA*eA) [compound 337305] | 25% | –
11 | 337337 (antisense eA*eT*eG*eT*eT*dG*dT*dT*d[5mC]*dA*dG*d[5mC]*dT*dG*d[5mC]*eT*eG*e[5mC]*eT*eT) [compound 337337] | 76% | –
12 | 337249 (antisense eT*eT*eG*eG*eG*d[5mC]*d[5mC]*dA*dT*d[5mC]*d[5mC]*dT*dG*d[5mC]*dT*eA*eA*eA*eA*eT) [compound 337249] | 48% | –
13 | 337371 (antisense eG*eA*eA*e[5mC]*eA*d[5mC]*dA*dT*d[5mC]*d[5mC]*dT*dT*dA*dT*dT*eT*eG*e[5mC]*eA*eT) [compound 337371] | 76% | –
14 | 337258 (antisense eT*e[5mC]*e[5mC]*eG*eG*d[5mC]*dA*dG*dA*dG*dG*d[5mC]*d[5mC]*dG*dA*eG*eA*eG*eG*e[5mC]) [compound 337258] | 56% | –
15 | 337368 (antisense eT*eT*eT*eT*eT*dA*dA*dA*dA*dG*dT*dG*d[5mC]*d[5mC]*d[5mC]*eA*eG*eA*eT*eT) [compound 337368] | 59% | –
16 | 337367 (antisense eA*eA*eA*eG*eT*dG*d[5mC]*d[5mC]*d[5mC]*dA*dG*dA*dT*dT*dG*e[5mC]*eT*e[5mC]*eA*eA) [compound 337367] | 82% | –
17 | 337260 (antisense e[5mC]*e[5mC]*eA*eT*eT*dG*dG*dG*d[5mC]*d[5mC]*dA*dT*d[5mC]*d[5mC]*dT*eG*e[5mC]*eT*eA*eA) [compound 337260] | 62% | –
18 | 337329 (antisense eT*eA*eG*e[5mC]*e[5mC]*d[5mC]*dA*dT*dG*dT*dG*dA*dT*d[5mC]*dT*eG*eA*e[5mC]*eA*e[5mC]) [compound 337329] | 88% | –
19 | 337262 (antisense eA*eA*e[5mC]*eT*eG*d[5mC]*d[5mC]*dG*d[5mC]*dA*dG*d[5mC]*dT*d[5mC]*d[5mC]*eA*eT*eT*eG*eG) [compound 337262] | 74% | –
20 | 337330 (antisense eG*e[5mC]*e[5mC]*eA*eT*dG*dT*dT*dT*dT*d[5mC]*dT*dT*dT*dG*e[5mC]*eA*eA*eA*eA) [compound 337330] | 59% | –
21 | 337250 (antisense eA*eT*eT*e[5mC]*eA*d[5mC]*dT*dT*dG*d[5mC]*d[5mC]*dT*d[5mC]*d[5mC]*dT*eT*eG*eA*e[5mC]*eT) [compound 337250] | 51% | –
22 | 337304 (antisense eT*eT*eT*eT*eA*dA*dG*d[5mC]*dT*dG*dA*dT*dA*dA*dT*eT*e[5mC]*eA*eA*e[5mC]) [compound 337304] | 15% | –
23 | 337246 (antisense e[5mC]*eT*e[5mC]*e[5mC]*eT*dA*dA*dA*dT*dT*dA*dA*dG*dA*dA*e[5mC]*eT*eT*e[5mC]*eT) [compound 337246] | 37% | –
24 | 337315 (antisense eG*eA*eG*eG*e[5mC]*d[5mC]*dT*dT*dG*dG*dT*dG*dA*dT*dA*e[5mC]*eA*e[5mC]*e[5mC]*eT) [compound 337315] | 46% | –
25 | 337379 (antisense eG*eT*eA*eT*eG*dT*dA*dG*d[5mC]*dT*dA*dT*dA*dG*dG*eT*eG*eG*e[5mC]*e[5mC]) [compound 337379] | 71% | –
26 | 337370 (antisense eT*eG*e[5mC]*eA*eT*dT*dT*dA*dG*dA*dT*dA*dA*dA*dA*eG*e[5mC]*eA*eG*eA) [compound 337370] | 78% | –
27 | 337324 (antisense eG*e[5mC]*eA*eT*eT*dT*dG*dG*d[5mC]*dA*dT*d[5mC]*dT*dG*dA*e[5mC]*eA*eG*eA*eT) [compound 337324] | 79% | –
28 | 337272 (antisense eA*eT*e[5mC]*eT*eG*d[5mC]*dT*dG*d[5mC]*dT*dT*d[5mC]*dT*d[5mC]*d[5mC]*eG*eT*e[5mC]*eA*e[5mC]) [compound 337272] | 74% | –
29 | 337278 (antisense eA*eA*eT*e[5mC]*eA*dA*dA*dG*dT*d[5mC]*dA*dT*d[5mC]*d[5mC]*dT*eG*eG*eA*eG*eA) [compound 337278] | 69% | –
